In ChEMBL document CHEMBL5649169 (ChemMedChem, 2018):
pIC50: −log10 of the molar value.

Key:
[1] = target: Wee1-like protein kinase (Homo sapiens) (UniProt P30291); further: assay method not described here
[2] = target: Neurosecretory protein VGF (Homo sapiens) (UniProt O15240); further: assay method not described here
[3] = target: Ceramide synthase 2 (Homo sapiens) (UniProt Q96G23); further: assay method not described here
[4] = target: Coronin-1A (Homo sapiens) (UniProt P31146); further: assay method not described here
[5] = target: Thiol S-methyltransferase TMT1A (Homo sapiens) (UniProt Q9H8H3); further: assay method not described here
[6] = target: NADH dehydrogenase [ubiquinone] iron-sulfur protein 2, mitochondrial (Homo sapiens) (UniProt O75306); further: assay method not described here
[7] = target: General transcription and DNA repair factor IIH helicase subunit XPD (Homo sapiens) (UniProt P18074); further: assay method not described here
Chain of General transcription and DNA repair factor IIH helicase subunit XPD (Homo sapiens) (P18074 whole entry): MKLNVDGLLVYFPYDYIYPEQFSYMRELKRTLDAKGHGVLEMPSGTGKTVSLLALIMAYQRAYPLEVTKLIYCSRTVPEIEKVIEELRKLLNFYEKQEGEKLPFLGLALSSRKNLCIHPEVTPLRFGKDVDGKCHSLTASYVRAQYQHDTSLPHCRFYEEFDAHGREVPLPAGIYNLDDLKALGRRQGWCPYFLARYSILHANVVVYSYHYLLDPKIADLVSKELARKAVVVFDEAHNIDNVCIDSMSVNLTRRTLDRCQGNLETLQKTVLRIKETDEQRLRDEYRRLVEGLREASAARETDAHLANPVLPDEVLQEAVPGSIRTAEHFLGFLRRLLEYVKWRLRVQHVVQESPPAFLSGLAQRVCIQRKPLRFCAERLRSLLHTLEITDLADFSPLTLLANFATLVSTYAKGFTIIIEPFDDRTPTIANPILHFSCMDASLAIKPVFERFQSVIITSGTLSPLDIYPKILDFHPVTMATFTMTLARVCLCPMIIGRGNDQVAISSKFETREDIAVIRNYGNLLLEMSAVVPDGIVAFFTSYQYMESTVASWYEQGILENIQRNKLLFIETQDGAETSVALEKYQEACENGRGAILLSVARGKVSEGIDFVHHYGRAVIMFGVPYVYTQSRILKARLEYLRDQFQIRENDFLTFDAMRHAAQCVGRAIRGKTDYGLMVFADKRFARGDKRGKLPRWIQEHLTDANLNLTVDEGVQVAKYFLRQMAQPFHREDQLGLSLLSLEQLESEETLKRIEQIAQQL

[8] = target: Crk-like protein (Homo sapiens) (UniProt P46109); further: assay method not described here
[9] = target: 5'-AMP-activated protein kinase subunit beta-1 (Homo sapiens) (UniProt Q9Y478); further: assay method not described here
Chain of 5'-AMP-activated protein kinase subunit beta-1 (Homo sapiens) (Q9Y478 whole entry): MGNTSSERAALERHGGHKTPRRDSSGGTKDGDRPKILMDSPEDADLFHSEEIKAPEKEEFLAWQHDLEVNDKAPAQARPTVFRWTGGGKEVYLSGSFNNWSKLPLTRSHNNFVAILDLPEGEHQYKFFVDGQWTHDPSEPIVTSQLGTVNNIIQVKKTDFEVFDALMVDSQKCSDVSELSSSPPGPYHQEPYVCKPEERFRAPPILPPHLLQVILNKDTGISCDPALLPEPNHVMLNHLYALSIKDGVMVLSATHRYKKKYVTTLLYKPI

[10] = target: Translocon-associated protein subunit gamma (Homo sapiens) (UniProt Q9UNL2); further: assay method not described here
[11] = target: Syndecan-1 (Homo sapiens) (UniProt P18827); further: assay method not described here
[12] = target: Heat shock 70 kDa protein 1A/1B (Homo sapiens) (UniProt P0DMV8+P0DMV9); further: assay method not described here
[13] = target: Interleukin enhancer-binding factor 3 (Homo sapiens) (UniProt Q12906); further: assay method not described here
[14] = target: Transportin-1 (Homo sapiens) (UniProt Q92973); further: assay method not described here
[15] = target: Atlastin-3 (Homo sapiens) (UniProt Q6DD88); further: assay method not described here
[16] = target: Coatomer subunit epsilon (Homo sapiens) (UniProt O14579); further: assay method not described here
[17] = target: Casein kinase I isoform epsilon (Homo sapiens) (UniProt P49674); further: assay method not described here
Ephrin type-B receptor 2 = Ephrin type-B receptor 2 (Homo sapiens, UniProt P29323); assay: Inhibition of Nano Luc-fused full length C-terminal EPHB2 (unknown origin) expressed in HEK293T cells using NanoGlo as substrate incubated for 2 hrs in presence of tracer by NanoBRET assay; assay type: cell-based
[18] = target: Flap endonuclease 1 (Homo sapiens) (UniProt P39748); further: assay method not described here
[19] = target: Neutral alpha-glucosidase AB (Homo sapiens) (UniProt Q14697); further: assay method not described here
[20] = target: Protein LYRIC (Homo sapiens) (UniProt Q86UE4); further: assay method not described here
[21] = target: Rho guanine nucleotide exchange factor 2 (Homo sapiens) (UniProt Q92974); further: assay method not described here
Chain of Rho guanine nucleotide exchange factor 2 (Homo sapiens) (Q92974 whole entry): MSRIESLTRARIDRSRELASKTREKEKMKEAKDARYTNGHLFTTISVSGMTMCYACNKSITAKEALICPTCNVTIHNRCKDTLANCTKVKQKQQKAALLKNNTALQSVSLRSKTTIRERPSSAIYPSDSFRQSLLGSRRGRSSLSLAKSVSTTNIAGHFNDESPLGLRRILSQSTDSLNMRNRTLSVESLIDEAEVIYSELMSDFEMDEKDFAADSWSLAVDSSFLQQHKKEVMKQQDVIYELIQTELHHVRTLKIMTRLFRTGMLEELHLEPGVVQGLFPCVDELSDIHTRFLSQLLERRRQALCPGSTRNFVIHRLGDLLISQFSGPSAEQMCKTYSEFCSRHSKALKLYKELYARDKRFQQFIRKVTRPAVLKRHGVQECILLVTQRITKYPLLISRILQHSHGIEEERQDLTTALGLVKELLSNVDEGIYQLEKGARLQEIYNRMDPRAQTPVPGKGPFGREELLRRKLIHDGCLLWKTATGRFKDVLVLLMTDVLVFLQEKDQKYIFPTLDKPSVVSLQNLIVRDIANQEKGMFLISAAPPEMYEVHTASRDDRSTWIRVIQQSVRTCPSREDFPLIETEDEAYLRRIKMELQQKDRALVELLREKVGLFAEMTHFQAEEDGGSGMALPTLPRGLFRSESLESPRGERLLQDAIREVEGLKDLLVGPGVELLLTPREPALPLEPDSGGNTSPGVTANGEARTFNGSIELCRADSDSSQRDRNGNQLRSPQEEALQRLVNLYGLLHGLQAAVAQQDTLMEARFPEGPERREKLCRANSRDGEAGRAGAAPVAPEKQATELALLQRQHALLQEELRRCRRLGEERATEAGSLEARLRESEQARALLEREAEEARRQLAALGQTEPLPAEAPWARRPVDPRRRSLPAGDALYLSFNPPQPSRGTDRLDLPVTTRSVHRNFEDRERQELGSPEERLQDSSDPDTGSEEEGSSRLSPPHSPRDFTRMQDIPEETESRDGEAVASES

[22] = target: Eukaryotic translation elongation factor 1 epsilon-1 (Homo sapiens) (UniProt O43324); further: assay method not described here
[23] = target: NBAS subunit of NRZ tethering complex (Homo sapiens) (UniProt A2RRP1); further: assay method not described here
[24] = target: Serine/threonine-protein kinase 16 (Homo sapiens) (UniProt O75716); further: assay method not described here
Elongin-C (Homo sapiens) = Elongin-C (Homo sapiens) (UniProt Q15369); further: assay method not described here
[25] = target: Large ribosomal subunit protein eL27 (Homo sapiens) (UniProt P61353); further: assay method not described here
[26] = target: Nuclear cap-binding protein subunit 1 (Homo sapiens) (UniProt Q09161); further: assay method not described here
[27] = target: Fatty acyl-CoA reductase 1 (Homo sapiens) (UniProt Q8WVX9); further: assay method not described here
[28] = target: Transmembrane 9 superfamily member 4 (Homo sapiens) (UniProt Q92544); further: assay method not described here
[29] = target: Pre-mRNA-processing factor 40 homolog A (Homo sapiens) (UniProt O75400); further: assay method not described here
[30] = target: Signal peptidase complex subunit 2 (Homo sapiens) (UniProt Q15005); further: assay method not described here
[31] = target: Serine/threonine-protein kinase ULK1 (Homo sapiens) (UniProt O75385); further: assay method not described here
[32] = target: Nuclear pore complex protein Nup155 (Homo sapiens) (UniProt O75694); further: assay method not described here
[33] = target: Growth factor receptor-bound protein 2 (Homo sapiens) (UniProt P62993); further: assay method not described here
Chain of Growth factor receptor-bound protein 2 (Homo sapiens) (P62993 whole entry, looked up): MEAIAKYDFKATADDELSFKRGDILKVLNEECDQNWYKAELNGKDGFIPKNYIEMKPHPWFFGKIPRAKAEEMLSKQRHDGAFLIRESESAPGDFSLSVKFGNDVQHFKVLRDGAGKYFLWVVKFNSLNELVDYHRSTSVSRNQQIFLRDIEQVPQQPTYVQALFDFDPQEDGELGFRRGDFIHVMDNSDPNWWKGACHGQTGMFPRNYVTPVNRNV

[34] = target: Small ribosomal subunit protein eS7 (Homo sapiens) (UniProt P62081); further: assay method not described here
[35] = target: Endoplasmin (Homo sapiens) (UniProt P14625); further: assay method not described here
Chain of Endoplasmin (Homo sapiens) (P14625 whole entry): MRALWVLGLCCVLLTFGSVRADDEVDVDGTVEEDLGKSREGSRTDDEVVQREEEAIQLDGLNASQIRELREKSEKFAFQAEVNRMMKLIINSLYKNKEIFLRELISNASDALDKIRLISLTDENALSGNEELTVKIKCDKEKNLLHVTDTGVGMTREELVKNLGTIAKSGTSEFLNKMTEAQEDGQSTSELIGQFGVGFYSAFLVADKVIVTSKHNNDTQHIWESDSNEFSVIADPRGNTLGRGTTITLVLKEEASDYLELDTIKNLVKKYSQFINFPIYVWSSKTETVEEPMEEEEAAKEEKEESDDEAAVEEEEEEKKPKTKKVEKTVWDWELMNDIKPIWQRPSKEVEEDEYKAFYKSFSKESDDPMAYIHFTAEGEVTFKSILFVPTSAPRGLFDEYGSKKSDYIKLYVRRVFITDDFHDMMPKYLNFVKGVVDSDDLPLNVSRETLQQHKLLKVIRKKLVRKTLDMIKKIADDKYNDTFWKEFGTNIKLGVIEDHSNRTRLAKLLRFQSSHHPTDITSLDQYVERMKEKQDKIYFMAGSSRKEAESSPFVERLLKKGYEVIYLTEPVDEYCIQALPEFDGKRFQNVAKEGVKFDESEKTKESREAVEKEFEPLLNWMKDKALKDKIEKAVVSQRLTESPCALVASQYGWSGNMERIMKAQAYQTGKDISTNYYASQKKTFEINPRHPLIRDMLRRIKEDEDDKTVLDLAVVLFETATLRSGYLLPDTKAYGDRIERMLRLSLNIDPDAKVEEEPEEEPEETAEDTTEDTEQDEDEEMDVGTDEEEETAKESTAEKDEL

[36] = target: Exosome RNA helicase MTR4 (Homo sapiens) (UniProt P42285); further: assay method not described here
Chain of Exosome RNA helicase MTR4 (Homo sapiens) (P42285 whole entry): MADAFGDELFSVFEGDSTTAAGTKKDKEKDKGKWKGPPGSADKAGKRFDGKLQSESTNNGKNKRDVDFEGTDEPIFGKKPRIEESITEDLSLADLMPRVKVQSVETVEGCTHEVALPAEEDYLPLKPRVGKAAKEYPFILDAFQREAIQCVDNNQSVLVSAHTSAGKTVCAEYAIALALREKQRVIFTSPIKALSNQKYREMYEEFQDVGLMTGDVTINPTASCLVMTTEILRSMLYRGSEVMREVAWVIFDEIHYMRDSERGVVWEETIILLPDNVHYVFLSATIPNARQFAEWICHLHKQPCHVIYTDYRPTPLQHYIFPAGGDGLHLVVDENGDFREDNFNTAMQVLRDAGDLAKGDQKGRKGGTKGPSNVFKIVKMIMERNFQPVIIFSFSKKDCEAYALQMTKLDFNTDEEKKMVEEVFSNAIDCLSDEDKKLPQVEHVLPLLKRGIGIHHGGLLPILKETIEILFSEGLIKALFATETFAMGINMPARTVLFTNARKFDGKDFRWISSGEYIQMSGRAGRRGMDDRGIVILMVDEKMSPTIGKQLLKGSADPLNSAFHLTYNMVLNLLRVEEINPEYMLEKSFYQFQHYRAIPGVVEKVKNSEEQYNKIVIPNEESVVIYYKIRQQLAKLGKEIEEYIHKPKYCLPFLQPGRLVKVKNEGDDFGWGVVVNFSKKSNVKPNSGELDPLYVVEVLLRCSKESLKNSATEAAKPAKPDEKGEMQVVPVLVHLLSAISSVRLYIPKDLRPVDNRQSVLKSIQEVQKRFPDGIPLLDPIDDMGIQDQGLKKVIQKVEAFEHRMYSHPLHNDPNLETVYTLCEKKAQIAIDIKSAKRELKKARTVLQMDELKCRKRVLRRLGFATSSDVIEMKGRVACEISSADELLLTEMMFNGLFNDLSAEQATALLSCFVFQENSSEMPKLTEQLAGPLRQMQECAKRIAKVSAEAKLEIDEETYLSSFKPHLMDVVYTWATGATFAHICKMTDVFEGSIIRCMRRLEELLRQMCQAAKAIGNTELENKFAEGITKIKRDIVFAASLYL

[37] = target: ADP/ATP translocase 2 (Homo sapiens) (UniProt P05141); further: assay method not described here
[38] = target: Small ribosomal subunit protein uS17m (Homo sapiens) (UniProt Q9Y2R5); further: assay method not described here
[39] = target: G1/S-specific cyclin-E1 (Homo sapiens) (UniProt P24864); further: assay method not described here
[40] = target: WASH complex subunit 5 (Homo sapiens) (UniProt Q12768); further: assay method not described here
[41] = target: GSK3B-interacting protein (Homo sapiens) (UniProt Q9P0R6); further: assay method not described here
[42] = target: Pyruvate dehydrogenase E1 component subunit alpha, somatic form, mitochondrial (Homo sapiens) (UniProt P08559); further: assay method not described here
[43] = target: Glucose-6-phosphate 1-dehydrogenase (Homo sapiens) (UniProt P11413); further: assay method not described here
Chain of Glucose-6-phosphate 1-dehydrogenase (Homo sapiens) (P11413 whole entry): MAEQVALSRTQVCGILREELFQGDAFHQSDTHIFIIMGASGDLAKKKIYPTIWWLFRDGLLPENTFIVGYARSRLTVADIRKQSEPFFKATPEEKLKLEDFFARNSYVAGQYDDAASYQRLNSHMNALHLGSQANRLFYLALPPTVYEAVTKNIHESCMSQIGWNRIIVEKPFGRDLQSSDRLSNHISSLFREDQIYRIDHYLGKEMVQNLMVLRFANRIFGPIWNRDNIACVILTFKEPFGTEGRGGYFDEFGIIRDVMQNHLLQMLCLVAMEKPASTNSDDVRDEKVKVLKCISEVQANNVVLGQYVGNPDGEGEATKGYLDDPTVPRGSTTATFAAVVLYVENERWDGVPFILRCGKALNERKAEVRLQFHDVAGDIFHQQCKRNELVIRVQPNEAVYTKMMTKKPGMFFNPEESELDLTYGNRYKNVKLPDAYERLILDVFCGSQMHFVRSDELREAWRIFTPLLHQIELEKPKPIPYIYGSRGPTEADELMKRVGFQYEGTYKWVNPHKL
Wherever ED50 is given: assay method not described here.

Chain of Ceramide synthase 2 (Homo sapiens) (Q96G23 whole entry): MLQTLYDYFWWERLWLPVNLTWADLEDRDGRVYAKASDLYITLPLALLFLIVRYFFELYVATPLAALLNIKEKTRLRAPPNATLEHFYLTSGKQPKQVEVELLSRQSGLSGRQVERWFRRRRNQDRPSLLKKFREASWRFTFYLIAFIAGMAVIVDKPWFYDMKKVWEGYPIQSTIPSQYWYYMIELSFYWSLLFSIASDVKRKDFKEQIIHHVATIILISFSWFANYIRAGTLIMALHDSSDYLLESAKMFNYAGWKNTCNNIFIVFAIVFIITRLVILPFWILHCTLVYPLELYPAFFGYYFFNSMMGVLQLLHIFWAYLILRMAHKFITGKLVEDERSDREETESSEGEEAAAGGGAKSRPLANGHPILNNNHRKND

Structure (SMILES): Cc1ccc(C(=O)Nc2cccc(C(F)(F)F)c2)cc1Nc1nc(-c2cccnc2)nc2nn(C)cc12
- ED50 [1]: 2630 nM
- ED50 [2]: 2660 nM
- ED50 [3]: 3600 nM
- ED50 [4]: 0.0507 µM
- ED50 [5]: 2.97 µM
- ED50 [6]: 1240 nM
- ED50 [7]: 21.8 µM
- ED50 [8]: 10.2 µM
- ED50 [9]: 5.82 µM
- ED50 [10]: 0.0505 µM
- ED50 [11]: 1070 nM
- ED50 [12]: 1610 nM
- ED50 [13]: 0.0174 µM
- ED50 [14]: 464 nM
- ED50 (Homo sapiens): 55.8 nM
- ED50 [15]: 126 nM
- ED50 [16]: 126 nM
- ED50 [17]: 4.08 nM
- pIC50 (Ephrin type-B receptor 2): 6.20
- ED50 [18]: 1.02 µM
- ED50 [19]: 40.2 nM
- ED50 [20]: 6.82 µM
- ED50 [21]: 0.0484 µM
- ED50 [22]: 502 nM
- ED50 [23]: 22.4 µM
- ED50 [24]: 23.1 nM
- ED50 (Elongin-C (Homo sapiens)): 0.682 µM
- ED50 [25]: 48 nM
- ED50 [26]: 1780 nM
- ED50 [27]: 113 µM
- ED50 [28]: 95.3 µM
- ED50 [29]: 13.5 nM
- ED50 [30]: 2990 nM
- ED50 [31]: 550 nM
- ED50 [32]: 193 nM
- ED50 [33]: 821 nM
- ED50 [34]: 6.99 µM
- ED50 [35]: 55.9 nM
- ED50 [36]: 4.33 mM
- ED50 [37]: 186 nM
- ED50 [38]: 30.5 nM
- ED50 [39]: 20.6 nM
- ED50 [40]: 3060 nM
- ED50 [41]: 1810 nM
- ED50 [42]: 492 nM
- ED50 [43]: 0.107 µM

Structure (SMILES): Cc1ccc(C(=O)Nc2cccc(C(F)(F)F)c2)cc1Nc1nc(-c2cccnc2)nc2c1cnn2C
- ED50 [1]: 31.1 nM
- ED50 [2]: 2220 nM
- ED50 [3]: 68.3 nM
- ED50 [4]: 16.5 µM
- ED50 [5]: 30.4 µM
- ED50 [6]: 45.3 nM
- ED50 [7]: 0.199 µM
- ED50 [8]: 0.0843 µM
- ED50 [9]: 3.25 µM
- ED50 [10]: 12.7 µM
- ED50 [11]: 1770 nM
- ED50 [12]: 181 nM
- ED50 [13]: 9.39 µM
- ED50 [14]: 3810 nM
- ED50 (Homo sapiens): 18 nM
- ED50 [15]: 1150 nM
- ED50 [16]: 787 nM
- ED50 [17]: 4260 nM
- pIC50 (Ephrin type-B receptor 2): 8.60
- ED50 [18]: 8.96 µM
- ED50 [19]: 4090 nM
- ED50 [20]: 4.51 µM
- ED50 [21]: 9.51 µM
- ED50 [22]: 168 nM
- ED50 [23]: 0.0417 µM
- ED50 [24]: 130 nM
- ED50 (Elongin-C (Homo sapiens)): 122 µM
- ED50 [25]: 5260 nM
- ED50 [26]: 0.799 nM
- ED50 [27]: 4.69 µM
- ED50 [28]: 9.65 µM
- ED50 [29]: 13.4 nM
- ED50 [30]: 916 nM
- ED50 [31]: 3600 nM
- ED50 [32]: 537 nM
- ED50 [33]: 53.4 nM
- ED50 [34]: 2.24 µM
- ED50 [35]: 3470 nM
- ED50 [36]: 0.000385 mM
- ED50 [37]: 2540 nM
- ED50 [38]: 421 nM
- ED50 [39]: 103 nM
- ED50 [40]: 0.337 nM
- ED50 [41]: 29.1 nM
- ED50 [42]: 101 nM
- ED50 [43]: 81.4 µM
